As usually defined, the IC50 is the concentration that gives 50% inhibition.

Assay [1] deals with T1, CRAC channel (Homo sapiens, UniProt Q96D31).
T1 construct: endogenous in cells; host or cells: HEK293 (ECACC), untransfected
Description: HEK Calcium Influx Assay (FLIPR), inhibition of store-operated Ca2+ entry after thapsigargin store depletion. It counts as cell-based. Conditions: 10 μM compound, HEK293 cells, read-out: % inhib. [@ 10 μM] FLIPR. An outline of the steps:
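HEK293 cells loaded with Calcium-4 dye in Ca2+-free HBS (pH 7.4), stores depleted with 2 μM thapsigargin for 10 min (100 μM EGTA); after 3 mM CaCl2 re-addition and 15 min steady-state, compounds added and FLIPR signal averaged 9.5–10 min post-dose. IC50 from 8-point 1:3.16 dilutions from 10 μM, normalised to DMSO and non-depleted wells.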

Assay [2] has as its system Interleukin-2 (IL-2) production/release in Jurkat T cells. Description: Jurkat IL-2 Production Assay (PHA-stimulated, IL-2 AlphaLisa). Type of assay: cell-based. The conditions noted are these: Homo sapiens, PHA 15 μg/ml, 22 h, inhibition of IL-2 production. Here is the method:
The effect of compounds of the invention on Interleukin-2 (IL-2) production/release was tested in the Jurkat T cell line (ECACC) clone E6-1.
Jurkat T cells were cultured in DMEM/F12/Glutamax (Gibco) containing 10% FCS (Gibco), and maintained at 37° C., 5% CO2. Cells were split twice a week [5*10^6 (Mon-Thu) and 1*10^7 (Thu-Mon) cells/50 ml medium in 1-175 ZK culture flasks, respectively].
Prior to experiment, cells were seeded on 96 well plates (Cellstar 96 Well; Cat No. 655180, Greiner bio-one) at a density of 5*10^5 cells/well in DMEM/F12/Glutamax (Gibco) containing 10% FCS (Gibco), and incubated for 60 min at 37° C., 5% CO2. Subsequently, compounds were added and cells were allowed to incubate for 30 min at 37° C., 5% CO2. Cells were then stimulated with 15 μg/ml Phyto-hemagglutinin (PHA; Sigma) for 22 hours at 37° C., 5% CO2.
Before sampling of the supernatants, cells were spun down (200*g/5 min/RT). The amount of IL-2 released into the supernatant was quantified with the human IL-2 AlphaLisa kit (Perkin Elmer) according to manufacturer's instructions. Luminescence proximity measurements were carried out in the Synergy H4 reader (BioTek) employing the fluorescence setting of the reader (ex: 680/30 nm; em: 620/40 nm).
Inhibition of IL-2 production/release in/from Jurkat T cells was quantified as follows: Zero percent inhibition (MAX) was defined as the [IL-2] determined in supernatants derived from cells to which PHA & DMSO-only had been added instead of compound. Hundred percent inhibition (MIN) was defined as the [IL-2] determined in supernatants derived from cells that had been pre-treated with 1 μM CyclosporineA (Sigma) before the addition of 15 μg/ml PHA.
For routine IC50 determinations of compounds, 8 concentrations of a serial dilution (1:3.16) were tested, starting off from 10 μM.
A general note: Bead proximity is the source of the signal in Alpha formats.

T1 sequence (Q96D31 whole entry): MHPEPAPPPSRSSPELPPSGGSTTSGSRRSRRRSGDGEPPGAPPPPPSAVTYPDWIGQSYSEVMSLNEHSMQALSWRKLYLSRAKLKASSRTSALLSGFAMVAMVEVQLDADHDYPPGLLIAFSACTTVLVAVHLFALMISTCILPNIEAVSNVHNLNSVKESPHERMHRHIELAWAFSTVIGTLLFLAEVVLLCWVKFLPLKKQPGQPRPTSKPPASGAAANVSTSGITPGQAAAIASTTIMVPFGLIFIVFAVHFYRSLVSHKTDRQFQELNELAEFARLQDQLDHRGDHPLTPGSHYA

In the case of `Cc1cc(S(C)(=O)=O)ncc1N1CCc2[nH]c(C3CCCCC3)cc2C1` [Example 72, 2-Cyclohexyl-5-(4-methyl-6-methylsulfonyl-pyridin-3-yl)-4,5,6,7-tetrahydro-1H-pyrrolo[3,2-c]pyridine], the inhibition at 10 µM in assay [1] is over 70%. Besides, the IC50 in assay [2] is under 0.5 µM.

Turning to `Cc1cc(C(F)(F)F)ncc1N1CCc2[nH]c(-c3c(F)cccc3F)cc2C1` [Example 73, 2-(2,6-Difluoro-phenyl)-5-[4-methyl-6-(trifluoromethyl)-pyridin-3-yl]-4,5,6,7-tetrahydro-1H-pyrrolo[3,2-c]pyridine], the inhibition at 10 µM in assay [1] was over 70%. Further, the IC50 in assay [2] was under 0.5 µM.

Turning to `CCCCc1cc2c([nH]1)CCN(c1cnc(S(C)(=O)=O)cc1C)C2` [Example 74, 2-Butyl-5-(4-methyl-6-methylsulfonyl-pyridin-3-yl)-4,5,6,7-tetrahydro-1H-pyrrolo[3,2-c]pyridine], in assay [1], the inhibition at 10 µM is over 70%. In assay [2], the IC50 was 1 to 5 µM.

Regarding `Cc1cc(C2CC2)ncc1N1CCc2[nH]c(-c3c(F)cccc3F)cc2C1` [Example 75, 5-(6-Cyclopropyl-4-methyl-pyridin-3-yl)-2-(2,6-difluoro-phenyl)-4,5,6,7-tetrahydro-1H-pyrrolo[3,2-c]pyridine], in assay [1], the inhibition at 10 µM is over 70%. The IC50 in assay [2] fell in the range of 1 to 5 µM.

With `Cc1nc(C#N)ccc1N1CCc2[nH]c(-c3c(F)cccc3F)cc2C1` [Example 77, 5-[2-(2,6-Difluoro-phenyl)-4,5,6,7-tetrahydro-1H-pyrrolo[3,2-c]pyridin-5-yl]-6-methyl-pyridine-2-carbonitrile], the inhibition at 10 µM in assay [1] was over 70%. Further, the IC50 in assay [2] is 1 to 5 µM.

Take `Cc1cc(S(C)(=O)=O)ncc1N1CCc2[nH]c(-c3ccc(F)cc3F)cc2C1` [Example 78, 2-(2,4-Difluoro-phenyl)-5-(4-methyl-6-methylsulfonyl-pyridin-3-yl)-4,5,6,7-tetrahydro-1H-pyrrolo[3,2-c]pyridine]: the inhibition at 10 µM in assay [1] is over 70%. Besides, the IC50 in assay [2] is 0.5 to 1 µM.

Consider `Cc1cc(S(C)(=O)=O)ncc1N1CCc2[nH]c(-c3ccccc3F)cc2C1` [Example 79, 2-(2-Fluorophenyl)-5-(4-methyl-6-methylsulfonyl-pyridin-3-yl)-4,5,6,7-tetrahydro-1H-pyrrolo[3,2-c]pyridine], for which the inhibition at 10 µM in assay [1] was over 70%. Further, the IC50 in assay [2] was in the range of 0.5 to 1 µM.

For the compound `CC(=O)c1ccc(N2CCc3[nH]c(-c4c(F)cccc4F)cc3C2)c(C)c1` [Example 82, 1-[4-[2-(2,6-Difluoro-phenyl)-4,5,6,7-tetrahydro-1H-pyrrolo[3,2-c]pyridin-5-yl]-3-methyl-phenyl]-ethanone], the inhibition at 10 µM in assay [1] was over 70%. Also, in assay [2], the concentration for half-maximal inhibition (IC50) was 0.5 to 1 µM.

For `Cc1cc(S(C)(=O)=O)ncc1N1CCc2[nH]c(-c3cccnc3C)cc2C1` [Example 83, 5-(4-Methyl-6-methylsulfonyl-pyridin-3-yl)-2-(2-methyl-pyridin-3-yl)-4,5,6,7-tetrahydro-1H-pyrrolo[3,2-c]pyridine], in assay [1], the inhibition at 10 µM is over 70%. Further, in assay [2], the IC50 fell in the range of 1 to 5 µM.

For `Cc1cc(S(=O)(=O)C(F)(F)F)ccc1N1CCc2[nH]c(-c3c(F)cccc3F)cc2C1` [Example 86, 2-(2,6-Difluoro-phenyl)-5-[2-methyl-4-(trifluoromethylsulfonyl)-phenyl]-4,5,6,7-tetrahydro-1H-pyrrolo[3,2-c]pyridine], the inhibition at 10 µM in assay [1] was under 50%. In assay [2], the IC50 is 1 to 5 µM.

For the compound `Cc1cc([S+](C)[O-])ccc1N1CCc2[nH]c(-c3c(F)cccc3F)cc2C1` (stereo not drawn) [Example 87, 2-(2,6-Difluoro-phenyl)-5-[2-methyl-4-(methylsulfinyl)-phenyl]-4,5,6,7-tetrahydro-1H-pyrrolo[3,2-c]pyridine], in assay [1], the inhibition at 10 µM is over 70%. Besides, the IC50 in assay [2] is 1 to 5 µM.

With `Cc1cc(S(C)(=O)=O)ccc1N1CCc2[nH]c(-c3c(F)cccc3F)cc2C1` [Example 88, 2-(2,6-Difluoro-phenyl)-5-(2-methyl-4-methylsulfonyl-phenyl)-4,5,6,7-tetrahydro-1H-pyrrolo[3,2-c]pyridine], the inhibition at 10 µM in assay [1] lay in the range of 50 to 70%. Further, in assay [2], the IC50 was under 0.5 µM.

Consider `Cc1cc(S(C)(=O)=O)ncc1N1CCc2[nH]c(-c3ccncc3F)cc2C1` [Example 90, 2-(3-Fluoro-pyridin-4-yl)-5-(4-methyl-6-methylsulfonyl-pyridin-3-yl)-4,5,6,7-tetrahydro-1H-pyrrolo[3,2-c]pyridine], for which, in assay [1], the inhibition at 10 µM was over 70%. Moreover, the IC50 in assay [2] was in the range of 1 to 5 µM.

As for `Cc1cc(S(C)(=O)=O)ncc1N1CCc2[nH]c(-c3c(F)cccc3F)c(Br)c2C1` [Example 91, 3-Bromo-2-(2,6-difluoro-phenyl)-5-(4-methyl-6-methylsulfonyl-pyridin-3-yl)-4,5,6,7-tetrahydro-1H-pyrrolo[3,2-c]pyridine], the inhibition at 10 µM in assay [1] lay within 50 to 70%. The IC50 in assay [2] lay within 1 to 5 µM.

Turning to `Cc1cc(C)c(-c2cc3c([nH]2)CCN(c2cnc(S(C)(=O)=O)cc2C)C3)cn1` [Example 92, 2-(4,6-Dimethyl-pyridin-3-yl)-5-(4-methyl-6-methylsulfonyl-pyridin-3-yl)-4,5,6,7-tetrahydro-1H-pyrrolo[3,2-c]pyridine], in assay [1], the inhibition at 10 µM was over 70%. Further, the IC50 in assay [2] fell in the range of 1 to 5 µM.

As for `Cc1cc(C(F)(F)F)ncc1N1CCc2[nH]c(C3CCOCC3)cc2C1` [Example 93, 5-[4-Methyl-6-(trifluoromethyl)-pyridin-3-yl]-2-tetrahydro-pyran-4-yl-4,5,6,7-tetrahydro-1H-pyrrolo[3,2-c]pyridine], the inhibition at 10 µM in assay [1] was over 70%. For the same compound, in assay [2], the IC50 was 1 to 5 µM.

In the case of `Cc1cc(S(C)(=O)=O)ncc1N1CCc2[nH]c(-c3cncc(F)c3C)cc2C1` [Example 96, 2-(5-Fluoro-4-methyl-pyridin-3-yl)-5-(4-methyl-6-methylsulfonyl-pyridin-3-yl)-4,5,6,7-tetrahydro-1H-pyrrolo[3,2-c]pyridine], in assay [1], the inhibition at 10 µM is over 70%. In addition, the IC50 in assay [2] lay within 0.5 to 1 µM.

On to `Cc1cc(C(F)(F)F)ncc1N1CCc2[nH]c(C3CCCCC3)cc2C1` [Example 97, 2-Cyclohexyl-5-[4-methyl-6-(trifluoromethyl)-pyridin-3-yl]-4,5,6,7-tetrahydro-1H-pyrrolo[3,2-c]pyridine], for which the inhibition at 10 µM in assay [1] lay in the range of 50 to 70%. In addition, the IC50 in assay [2] lay within 1 to 5 µM.

With `Cc1sc(-c2ccn(C)n2)nc1N1CCc2[nH]c(-c3c(F)cccc3F)cc2C1` [Example 99, 4-[2-(2,6-Difluoro-phenyl)-4,5,6,7-tetrahydro-1H-pyrrolo[3,2-c]pyridin-5-yl]-5-methyl-2-(1-methyl-1H-pyrazol-3-yl)-thiazole], the inhibition at 10 µM in assay [1] is over 70%. For the same compound, the IC50 in assay [2] was under 0.5 µM.

Regarding `CCOc1cc(C(F)(F)F)c(N2CCc3[nH]c(-c4c(F)cccc4F)cc3C2)cn1` [Example 100, 2-(2,6-Difluoro-phenyl)-5-[6-ethoxy-4-(trifluoromethyl)-pyridin-3-yl]-4,5,6,7-tetrahydro-1H-pyrrolo[3,2-c]pyridine], the inhibition at 10 µM in assay [1] is under 50%. The IC50 in assay [2] was 1 to 5 µM.

Take `Cc1cc(S(C)(=O)=O)c(F)cc1N1CCc2[nH]c(-c3c(F)cccc3F)cc2C1` [Example 101, 2-(2,6-Difluoro-phenyl)-5-(5-fluoro-2-methyl-4-methylsulfonyl-phenyl)-4,5,6,7-tetrahydro-1H-pyrrolo[3,2-c]pyridine]: the inhibition at 10 µM in assay [1] is over 70%. The 50% inhibitory concentration (IC50) in assay [2] was under 0.5 µM.

Take `Cc1cc(C#N)cnc1N1CCc2[nH]c(C3CCCCC3)cc2C1` [Example 102, 6-(2-Cyclohexyl-4,5,6,7-tetrahydro-1H-pyrrolo[3,2-c]pyridin-5-yl)-5-methyl-nicotinonitrile]: in assay [1], the inhibition at 10 µM was over 70%. The IC50 in assay [2] lay in the range of 0.5 to 1 µM.

With `COc1cc2c(cc1N1CCc3[nH]c(C4CCCCC4)cc3C1)CCS2(=O)=O` [Example 103, 5-(2-Cyclohexyl-4,5,6,7-tetrahydro-1H-pyrrolo[3,2-c]pyridin-5-yl)-6-methoxy-2,3-dihydro-benzo[b]thiophene 1,1-dioxide], in assay [1], the inhibition at 10 µM was under 50%. Moreover, in assay [2], the IC50 was under 0.5 µM.

Regarding `Cc1cc(CS(C)(=O)=O)ncc1N1CCc2[nH]c(-c3c(F)cccc3F)cc2C1` [Example 104, 2-(2,6-Difluoro-phenyl)-5-[4-methyl-6-(methylsulfonyl-methyl)-pyridin-3-yl]-4,5,6,7-tetrahydro-1H-pyrrolo[3,2-c]pyridine], the inhibition at 10 µM in assay [1] is over 70%. Moreover, in assay [2], the IC50 lay within 1 to 5 µM.

The record behind these values is US20160151337A1, “ANNELATED PYRROLES AND THEIR USE AS CRAC INHIBITORS” (Grünenthal GmbH, priority 2013, published 2016).
